Source: ChEMBL document CHEMBL1811891 (Bioorg Med Chem, 2011)

Legend:
[1] = biological target: C-C chemokine receptor type 5 (Homo sapiens, UniProt P51681); experiment: Antagonist activity at human CCR5 expressed in CHO cells assessed as inhibition of MIP-1alpha-induced calcium mobilization; type: functional, cell-based
Liver microsomes [2] = experiment: Metabolic stability in rat liver microsomes assessed as compound remaining after 15 mins; type: ADME, Microsome; settings: 0.25 h
Liver microsomes [3] = experiment: Metabolic stability in human liver microsomes assessed as compound remaining after 15 mins; type: ADME, Microsome; settings: 0.25 h
[4] = tested on: Human immunodeficiency virus 1; experiment: microbe, parasite or virus in culture; settings: Human immunodeficiency virus 1, Ba-L
Description: Antiviral activity against R5 tropic HIV1 Ba-L infected PBMC assessed as inhibition of viral p24 antigen expression

[5] = Bioavailability in rat at 10 mg/kg, po; type: ADME, organism-based; settings: in vivo
[6] = AUC in rat at 3 mg/kg, iv; type: ADME, organism-based; parameters: dose 3 mg/kg, route intravenous; settings: plasma
Rattus norvegicus [7] = experiment: Dose normalized Cmax in rat at 10 mg/kg, po; type: ADME, organism-based; parameters: dose 10 mg/kg, route oral; settings: in vivo
[8] = Clearance in rat at 3 mg/kg, iv; type: ADME, organism-based; parameters: dose 3 mg/kg, route intravenous; settings: in vivo
Rattus norvegicus [9] = experiment: Dose normalized AUC in rat at 10 mg/kg, po; type: ADME, organism-based; parameters: dose 10 mg/kg, route oral; settings: in vivo
[10] = Half life in rat at 3 mg/kg, iv; type: ADME, organism-based; parameters: dose 3 mg/kg, route intravenous; settings: in vivo
[11] = Half life in rat at 10 mg/kg, po; type: ADME, organism-based; parameters: dose 10 mg/kg, route oral; settings: in vivo
Rhesus monkey = experiment: Half life in monkey at 10 mg/kg, po; type: ADME, organism-based, Macaca mulatta; parameters: dose 10 mg/kg, route oral; settings: in vivo
[12] = Bioavailability in dog at 1 mg/kg, iv; type: ADME, organism-based, Canis lupus familiaris; settings: in vivo
[13] = Clearance in dog at 1 mg/kg, iv; type: ADME, organism-based, Canis lupus familiaris; parameters: dose 1 mg/kg, route intravenous; settings: in vivo
[14] = Clearance in rat at 1 mg/kg, iv; type: ADME, organism-based; parameters: dose 1 mg/kg, route intravenous; settings: in vivo
Rattus norvegicus [15] = experiment: Toxicity in rat at 100 mg/kg, po after 14 days; type: organism-based; parameters: dose 100 mg/kg, route oral; settings: in vivo, 336 h
Canis familiaris = experiment: Cardiotoxicity in dog at 100 mg/kg, po after 14 days; type: toxicity, organism-based, Canis lupus familiaris; parameters: dose 100 mg/kg, route oral; settings: in vivo, 336 h
[16] = Half life in dog at 3 mg/kg, po; type: ADME, organism-based, Canis lupus familiaris; parameters: dose 3 mg/kg, route oral; settings: in vivo
[17] = Clearance in monkey at 1 mg/kg, iv; type: ADME, organism-based, Macaca mulatta; parameters: dose 1 mg/kg, route intravenous; settings: rhesus monkey, in vivo
in vivo [18] = settings: dog, plasma, po, 3 mg/kg
[19] = Bioavailability in rat at 1 mg/kg, iv; type: ADME, organism-based; settings: in vivo
Salmonella typhimurium = experiment: Genotoxicity in Salmonella Typhimurium by Ames test; type: toxicity, organism-based; settings: salmonella enterica subsp. enterica serovar typhimurium
[20] = Bioavailability in monkey at 1 mg/kg, iv; type: ADME, organism-based, Macaca mulatta; settings: rhesus monkey, in vivo
in vivo [21] = settings: dog, po, 3 mg/kg

Chain of C-C chemokine receptor type 5 (P51681 whole entry): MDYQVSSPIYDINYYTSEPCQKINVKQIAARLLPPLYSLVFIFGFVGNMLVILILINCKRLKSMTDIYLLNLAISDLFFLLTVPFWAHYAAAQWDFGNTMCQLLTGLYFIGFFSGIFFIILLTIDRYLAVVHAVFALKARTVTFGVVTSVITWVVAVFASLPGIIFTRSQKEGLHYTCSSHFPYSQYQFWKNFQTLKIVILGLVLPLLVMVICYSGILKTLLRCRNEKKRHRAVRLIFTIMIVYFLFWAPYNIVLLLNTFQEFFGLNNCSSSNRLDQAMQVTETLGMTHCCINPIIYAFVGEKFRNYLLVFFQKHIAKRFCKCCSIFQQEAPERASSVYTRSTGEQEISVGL

For CNC(=O)c1ccc(Oc2ccc(CN3CCC4(CC3)C(=O)N[C@H]([C@H](O)C3CCCCC3)C(=O)N4CCOC)cc2)cc1, the IC50 [1] was 33 nM.

CNC(=O)c1ccc(Oc2ccc(CN3CCC4(CC3)C(=O)N[C@H]([C@H](O)C3CCCCC3)C(=O)N4CC(F)(F)C(F)(F)F)cc2)cc1 gave an IC50 [1] of 270 nM.

For CCCCN1C(=O)[C@@H]([C@H](O)C2CCCCCC2)NC(=O)C12CCN(Cc1ccc(Oc3ccc(C(=O)O)cc3)cc1)CC2.Cl, the IC50 [1] was 32 nM, the Stability (Liver microsomes [2]) was 59% and the Stability (Liver microsomes [3]) was 34%.

With CCN1C(=O)[C@@H]([C@H](O)C2CCCCC2)NC(=O)C12CCN(Cc1ccc(Oc3ccc(C(=O)O)cc3)cc1)CC2 the IC50 [1] was 23 nM.

With CCCCN1C(=O)[C@@H]([C@H](O)C2CCCCC2)NC(=O)C12CCN(Cc1ccc(Oc3ccc(O)cc3)cc1)CC2.Cl the IC50 [1] was 68 nM, the Stability (Liver microsomes [2]) was 23% and the Stability (Liver microsomes [3]) was 3.5%.

COC[C@@H](c1ccc(C(F)(F)F)cc1)N1CCN(C2(C)CCN(C(=O)c3c(C)ncnc3C)CC2)C[C@@H]1C [VICRIVIROC] gave an IC90 [4] of 79 nM.

With CCCCN1C(=O)[C@@H]([C@H](O)C2CCCCC2)NC(=O)C12CCN(Cc1ccc(Oc3ccc(C(=O)NC)cc3)cc1)CC2.Cl the IC50 [1] was 38 nM, the bioavailability [5] was 10% and the AUC [6] was 3780 ng·h/mL. The Cmax/dose (Rattus norvegicus [7]) was 333 ng/mL, the clearance [8] was 12.8 mL/min/kg and the AUC/dose (Rattus norvegicus [9]) was 1296 ng·h/mL. It also gave a half-life [10] of 0.46 h and a half-life [11] of 1.22 h.

With CCCCN1C(=O)[C@@H]([C@H](O)C2CCCCC2)NC(=O)C12CCN(Cc1ccc(Oc3ccc(S(C)(=O)=O)cc3)cc1)CC2 the IC50 [1] was 34 nM.

With CCCCN1C(=O)[C@@H]([C@H](O)C2CCC2)NC(=O)C12CCN(Cc1ccc(Oc3ccc(C(=O)O)cc3)cc1)CC2.Cl the IC50 [1] was 25 nM, the Stability (Liver microsomes [2]) was 100% and the Stability (Liver microsomes [3]) was 95%.

Cc1cn([C@H]2C[C@H](N=[N+]=[N-])[C@@H](CO)O2)c(=O)[nH]c1=O [ZIDOVUDINE] showed an IC90 [4] of 48 nM.

Work on CCCCN1C(=O)[C@@H]([C@H](O)C2CC2)NC(=O)C12CCN(Cc1ccc(Oc3ccc(C(=O)O)cc3)cc1)CC2.Cl yielded an IC50 [1] of 81 nM, a Stability (Liver microsomes [2]) of 100% and a Stability (Liver microsomes [3]) of 89%.

With CCCCN1C(=O)[C@@H]([C@H](O)C2CCCCC2)NC(=O)C12CCN(Cc1ccc(Oc3ccc(C(=O)O)cc3)cc1)CC2.Cl [APLAVIROC HYDROCHLORIDE] the t1/2 (Rhesus monkey) was 24.4 h, the bioavailability [12] was 12% and the clearance [13] was 33 mL/min. The clearance [14] was 10 mL/min, the Activity (Rattus norvegicus [15]) was “Non-toxic” and the Activity (Canis familiaris) was “Non-toxic”. For the same compound, the half-life [16] was 4.5 h, the clearance [17] was 15 mL/min and the AUC (in vivo [18]) was 189 ng·h/mL. The IC90 [4] was 12 nM, the bioavailability [19] was 23% and the Activity (Salmonella typhimurium) was “Non-toxic”. The bioavailability [20] was 4.6% and the Cmax (in vivo [21]) was 135 ng/mL.

With CNC(=O)c1ccc(Oc2ccc(CN3CCC4(CC3)C(=O)N[C@H]([C@H](O)C3CCCCC3)C(=O)N4CCN(C)C)cc2)cc1 the IC50 [1] was 640 nM.

Compound CCCCN1C(=O)[C@@H]([C@H](O)C2CCCC2)NC(=O)C12CCN(Cc1ccc(Oc3ccc(C(=O)O)cc3)cc1)CC2.Cl has an IC50 [1] of 33 nM, a Stability (Liver microsomes [2]) of 100% and a Stability (Liver microsomes [3]) of 93%.

CCCCCN1C(=O)[C@@H]([C@H](O)C2CCCCC2)NC(=O)C12CCN(Cc1ccc(Oc3ccc(C(=O)NC)cc3)cc1)CC2 gave an IC50 [1] of 68 nM.

Compound CCCCN1C(=O)C(CC2CCCCC2)NC(=O)C12CCN(Cc1ccc(Oc3ccc(C(=O)NC)cc3)cc1)CC2.Cl (centres undefined) has a bioavailability [5] of 1.9%, an AUC [6] of 400 ng·h/mL and a Cmax/dose (Rattus norvegicus [7]) of 5.6 ng/mL. For the same compound, the clearance [8] was 113 mL/min/kg, the AUC/dose (Rattus norvegicus [9]) was 24.8 ng·h/mL and the half-life [10] was 0.332 h. The half-life [11] was 1.72 h.

Work on CCCCN1C(=O)[C@@H]([C@@H](O)C2CCC(O)CC2)NC(=O)C12CCN(Cc1ccc(Oc3ccc(C(=O)O)cc3)cc1)CC2.Cl (some centres undefined) yielded an IC50 [1] of 23 nM and a Stability (Liver microsomes [2]) of 92%.

Work on CCCCN1C(=O)[C@@H]([C@H](O)C2CCCCC2)NC(=O)C12CCN(Cc1ccc(Oc3ccc(NS(C)(=O)=O)cc3)cc1)CC2.Cl yielded a bioavailability [5] of 5%, an AUC [6] of 1540 ng·h/mL and a Cmax/dose (Rattus norvegicus [7]) of 50 ng/mL. For the same compound, the clearance [8] was 25 mL/min/kg, the AUC/dose (Rattus norvegicus [9]) was 242 ng·h/mL and the Stability (Liver microsomes [2]) was 91%. It also gave a half-life [10] of 2.28 h, a half-life [11] of 3.42 h and a Stability (Liver microsomes [3]) of 1.8%.

CCCCN1C(=O)[C@@H]([C@H](O)C2CCOCC2)NC(=O)C12CCN(Cc1ccc(Oc3ccc(C(=O)O)cc3)cc1)CC2 showed an IC50 [1] of 120 nM.
